Measured values as given in ChEMBL document CHEMBL1909046, “DrugMatrix in vitro pharmacology data”.

Assays:
Glucocorticoid receptor = molecular target: T1, Glucocorticoid receptor (Homo sapiens, UniProt P04150); conditions: hela s3; note: in other assays of this panel Not Active means under 50% inhibition at 10 µM
T1 sequence (P04150 whole entry): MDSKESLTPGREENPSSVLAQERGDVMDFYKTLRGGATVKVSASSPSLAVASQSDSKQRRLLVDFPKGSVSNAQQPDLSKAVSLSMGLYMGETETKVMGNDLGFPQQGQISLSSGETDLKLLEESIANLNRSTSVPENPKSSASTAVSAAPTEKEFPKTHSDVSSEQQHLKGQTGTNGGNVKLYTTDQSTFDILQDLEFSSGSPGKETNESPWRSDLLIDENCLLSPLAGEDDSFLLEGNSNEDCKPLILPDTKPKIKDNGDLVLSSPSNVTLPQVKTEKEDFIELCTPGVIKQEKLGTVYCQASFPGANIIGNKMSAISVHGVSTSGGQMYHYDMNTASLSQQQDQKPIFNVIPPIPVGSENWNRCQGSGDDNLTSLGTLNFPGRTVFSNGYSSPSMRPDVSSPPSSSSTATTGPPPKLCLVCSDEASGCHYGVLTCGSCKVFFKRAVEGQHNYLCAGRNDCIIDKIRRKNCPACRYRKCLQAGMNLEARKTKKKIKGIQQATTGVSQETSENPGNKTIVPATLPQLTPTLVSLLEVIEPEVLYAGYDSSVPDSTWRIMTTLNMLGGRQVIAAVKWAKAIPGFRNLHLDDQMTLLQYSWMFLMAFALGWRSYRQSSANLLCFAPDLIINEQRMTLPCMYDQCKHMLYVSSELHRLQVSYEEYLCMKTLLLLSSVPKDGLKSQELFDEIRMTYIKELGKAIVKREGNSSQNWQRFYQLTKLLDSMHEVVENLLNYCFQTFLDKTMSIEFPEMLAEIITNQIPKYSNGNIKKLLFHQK

[1] = DRUGMATRIX: Imidazoline I2, Central radioligand binding (ligand: [3H] Idazoxan); format: cell membranes, Rattus norvegicus, Wistar, Cerebral cortex, Membrane; conditions: Not Active = under 50% inhibition at 10 µM
[2] = molecular target: T2, Type-2 angiotensin II receptor (Homo sapiens, UniProt P50052); format: cell-based; conditions: cho-k1; note: in other assays of this panel Not Active means under 50% inhibition at 10 µM
T2 sequence (P50052 whole entry): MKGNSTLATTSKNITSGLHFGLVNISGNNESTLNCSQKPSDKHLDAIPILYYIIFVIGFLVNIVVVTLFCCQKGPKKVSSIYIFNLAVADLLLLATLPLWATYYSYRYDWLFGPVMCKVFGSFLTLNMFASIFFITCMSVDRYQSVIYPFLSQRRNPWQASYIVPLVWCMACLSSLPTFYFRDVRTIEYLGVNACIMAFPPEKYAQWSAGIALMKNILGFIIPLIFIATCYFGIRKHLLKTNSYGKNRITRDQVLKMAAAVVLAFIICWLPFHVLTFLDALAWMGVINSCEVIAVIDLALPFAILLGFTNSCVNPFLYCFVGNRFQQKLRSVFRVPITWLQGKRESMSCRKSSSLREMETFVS

[3] = molecular target: T3, 5-hydroxytryptamine receptor 1A (Rattus norvegicus, UniProt P19327); format: cell membranes, CHO-K1, Membrane; conditions: cho-k1; note: in other assays of this panel Not Active means under 50% inhibition at 10 µM
T3 sequence (P19327 whole entry): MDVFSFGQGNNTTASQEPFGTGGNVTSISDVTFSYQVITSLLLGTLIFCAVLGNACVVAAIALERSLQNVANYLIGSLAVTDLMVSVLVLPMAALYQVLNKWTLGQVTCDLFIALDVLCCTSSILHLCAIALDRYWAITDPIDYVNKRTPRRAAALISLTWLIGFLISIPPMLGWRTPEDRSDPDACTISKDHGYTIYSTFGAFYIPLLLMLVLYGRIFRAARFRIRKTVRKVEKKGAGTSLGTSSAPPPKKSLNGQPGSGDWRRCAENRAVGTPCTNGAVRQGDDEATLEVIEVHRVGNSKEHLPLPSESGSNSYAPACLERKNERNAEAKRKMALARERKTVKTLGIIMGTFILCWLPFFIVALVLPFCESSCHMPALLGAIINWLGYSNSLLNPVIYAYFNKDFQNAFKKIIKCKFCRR

D(1A) dopamine receptor = D(1A) dopamine receptor (Homo sapiens, UniProt P21728); assay: DRUGMATRIX: Dopamine D1 radioligand binding (ligand: [3H] SCH-23390); format: cell membranes, CHO, Membrane; conditions: cho; Not Active = under 50% inhibition at 10 µM
D(1A) dopamine receptor, sequence (P21728 whole entry): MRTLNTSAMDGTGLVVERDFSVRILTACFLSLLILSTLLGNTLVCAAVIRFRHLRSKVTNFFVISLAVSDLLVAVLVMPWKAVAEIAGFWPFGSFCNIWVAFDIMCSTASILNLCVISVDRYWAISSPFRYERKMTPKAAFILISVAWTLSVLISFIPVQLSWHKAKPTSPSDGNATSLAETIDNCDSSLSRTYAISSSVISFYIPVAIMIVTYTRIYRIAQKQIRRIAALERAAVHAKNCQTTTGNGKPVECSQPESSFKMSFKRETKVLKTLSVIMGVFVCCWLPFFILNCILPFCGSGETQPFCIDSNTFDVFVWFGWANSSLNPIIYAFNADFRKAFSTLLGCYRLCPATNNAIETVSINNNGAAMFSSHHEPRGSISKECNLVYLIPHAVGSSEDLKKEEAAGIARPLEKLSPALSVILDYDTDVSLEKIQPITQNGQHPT

Neutrophil elastase = molecular target: T4, Neutrophil elastase (Homo sapiens, UniProt P08246); format: tissue-based;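 note: inhibition of neutrophil elastase enzyme activity, measured with a p-nitroanilide-linked peptide substrate; in other assays of this panel Not Active means under 50% inhibition at 10 µM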
T4 sequence (P08246 whole entry): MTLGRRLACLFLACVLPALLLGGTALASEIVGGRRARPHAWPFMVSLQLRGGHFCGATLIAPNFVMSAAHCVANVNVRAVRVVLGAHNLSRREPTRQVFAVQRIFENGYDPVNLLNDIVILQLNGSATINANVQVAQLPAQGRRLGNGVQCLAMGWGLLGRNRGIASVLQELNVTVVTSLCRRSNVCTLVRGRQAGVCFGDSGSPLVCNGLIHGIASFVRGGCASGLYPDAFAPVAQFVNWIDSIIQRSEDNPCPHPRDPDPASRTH

[4] = molecular target: T5, Alpha-1B adrenergic receptor (Rattus norvegicus, UniProt P15823); assay: DRUGMATRIX: Alpha-1B adrenergic receptor radioligand binding (ligand: prazosin); format: cell membranes, Wistar, Liver, Membrane; conditions: Not Active = under 50% inhibition at 10 µM
T5 sequence (P15823 whole entry): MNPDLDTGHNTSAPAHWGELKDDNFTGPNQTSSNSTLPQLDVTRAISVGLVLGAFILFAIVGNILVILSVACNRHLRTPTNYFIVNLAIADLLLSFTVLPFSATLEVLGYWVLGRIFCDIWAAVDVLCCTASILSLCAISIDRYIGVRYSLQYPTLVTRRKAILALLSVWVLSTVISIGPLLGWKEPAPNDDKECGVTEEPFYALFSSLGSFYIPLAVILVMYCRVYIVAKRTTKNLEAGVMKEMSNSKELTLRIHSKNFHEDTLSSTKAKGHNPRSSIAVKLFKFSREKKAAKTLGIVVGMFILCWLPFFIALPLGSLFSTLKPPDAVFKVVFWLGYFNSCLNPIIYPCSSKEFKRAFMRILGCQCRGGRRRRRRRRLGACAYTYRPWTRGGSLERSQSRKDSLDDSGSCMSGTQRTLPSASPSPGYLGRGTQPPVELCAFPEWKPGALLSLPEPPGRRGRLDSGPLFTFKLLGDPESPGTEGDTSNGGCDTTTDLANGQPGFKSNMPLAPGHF

[5] = molecular target: T6, C-X-C chemokine receptor type 2 (Homo sapiens, UniProt P25025); format: cell membranes, Membrane; conditions: cho-k1; note: in other assays of this panel Not Active means under 50% inhibition at 10 µM
T6 sequence (P25025 whole entry): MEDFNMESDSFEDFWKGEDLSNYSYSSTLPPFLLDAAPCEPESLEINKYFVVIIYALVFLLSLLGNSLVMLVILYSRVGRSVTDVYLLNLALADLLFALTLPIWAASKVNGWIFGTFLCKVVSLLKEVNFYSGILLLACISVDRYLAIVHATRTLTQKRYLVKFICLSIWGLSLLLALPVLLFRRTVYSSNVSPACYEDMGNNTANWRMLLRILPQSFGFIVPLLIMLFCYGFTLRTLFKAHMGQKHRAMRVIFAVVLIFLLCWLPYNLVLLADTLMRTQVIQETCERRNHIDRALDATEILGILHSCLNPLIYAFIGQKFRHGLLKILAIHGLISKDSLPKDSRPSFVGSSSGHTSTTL

O=c1cc(-c2ccccc2)oc2c1ccc1ccccc12 [ALPHA-NAPHTHOFLAVONE]
Not Active: IC50 (Glucocorticoid receptor) | IC50 [1] | Ki [1] | IC50 [2] | IC50 [3] | IC50 (D(1A) dopamine receptor) | IC50 (Neutrophil elastase) | IC50 [4] | IC50 [5]

NCC[C@H](O)C(=O)N[C@@H]1C[C@H](N)[C@@H](O[C@H]2O[C@H](CN)[C@@H](O)[C@H](O)[C@H]2O)[C@H](O)[C@H]1O[C@H]1O[C@H](CO)[C@@H](O)[C@H](N)[C@H]1O [AMIKACIN]
Not Active: IC50 (Glucocorticoid receptor) | IC50 [1] | Ki [1] | IC50 [2] | IC50 [3] | IC50 (D(1A) dopamine receptor) | IC50 (Neutrophil elastase) | IC50 [4] | IC50 [5]

CCOC(=O)OC(C)OC1=C(C(=O)Nc2ccccn2)N(C)S(=O)(=O)c2ccccc21 (stereo not given) [AMPIROXICAM]
Not Active: IC50 (Glucocorticoid receptor) | IC50 [1] | Ki [1] | IC50 [2] | IC50 [3] | IC50 (D(1A) dopamine receptor) | IC50 (Neutrophil elastase) | IC50 [4] | IC50 [5]

N#C[C@H](O[C@@H]1O[C@H](CO[C@@H]2O[C@H](CO)[C@@H](O)[C@H](O)[C@H]2O)[C@@H](O)[C@H](O)[C@H]1O)c1ccccc1 [AMYGDALIN]
Not Active: IC50 (Glucocorticoid receptor) | IC50 [1] | Ki [1] | IC50 [2] | IC50 [3] | IC50 (D(1A) dopamine receptor) | IC50 (Neutrophil elastase) | IC50 [4] | IC50 [5]

C=C1[C@@H]2CCC3[C@@](CC[C@@H]4[C@H](C(=O)O)C[C@@H](O[C@@H]5O[C@H](CO)[C@@H](OS(=O)(=O)[O-])[C@H](OS(=O)(=O)[O-])[C@H]5OC(=O)CC(C)C)C[C@@]34C)(C2)[C@@H]1O.[K+].[K+] (stereo not given in full) [ATRACTYLOSIDE]
Not Active: IC50 (Glucocorticoid receptor) | IC50 [1] | Ki [1] | IC50 [2] | IC50 [3] | IC50 (D(1A) dopamine receptor) | IC50 (Neutrophil elastase) | IC50 [4] | IC50 [5]

Cn1cnc([N+](=O)[O-])c1Sc1ncnc2nc[nH]c12 [AZATHIOPRINE]
Not Active: IC50 (Glucocorticoid receptor) | IC50 [1] | Ki [1] | IC50 [2] | IC50 [3] | IC50 (D(1A) dopamine receptor) | IC50 (Neutrophil elastase) | IC50 [4] | IC50 [5]

CC1(C)S[C@@H]2[C@H](NC(=O)[C@H](NC(=O)N3CCNC3=O)c3ccccc3)C(=O)N2[C@H]1C(=O)O [AZLOCILLIN]
Not Active: IC50 (Glucocorticoid receptor) | IC50 [1] | Ki [1] | IC50 [2] | IC50 [3] | IC50 (D(1A) dopamine receptor) | IC50 (Neutrophil elastase) | IC50 [4] | IC50 [5]

CCOC(=O)c1ccc(N)cc1 [BENZOCAINE]
Not Active: IC50 (Glucocorticoid receptor) | IC50 [1] | Ki [1] | IC50 [2] | IC50 [3] | IC50 (D(1A) dopamine receptor) | IC50 (Neutrophil elastase) | IC50 [4] | IC50 [5]

OCc1ccccc1 [BENZYL ALCOHOL]
Not Active: IC50 (Glucocorticoid receptor) | IC50 [1] | Ki [1] | IC50 [2] | IC50 [3] | IC50 (D(1A) dopamine receptor) | IC50 (Neutrophil elastase) | IC50 [4] | IC50 [5]

CC(C)(Oc1ccc(CCNC(=O)c2ccc(Cl)cc2)cc1)C(=O)O [BEZAFIBRATE]
Not Active: IC50 (Glucocorticoid receptor) | IC50 [1] | Ki [1] | IC50 [2] | IC50 [3] | IC50 (D(1A) dopamine receptor) | IC50 (Neutrophil elastase) | IC50 [4] | IC50 [5]
